These results are taken from patent US8569327B2, “Phenanthroindolizidine derivative and NFκB inhibitor containing same as active ingredient” (Kabushiki Kaisha Yakult Honsha, priority 2008, dated 2013).

In data set [1] the test system is human colon cancer HT-29 cells. The data set is described as follows: Inhibitory action on the proliferation of HT-29 cells. Type of data set: cell-based. As to conditions: 96 hours, TetraColor ONE; for IC50: Homo sapiens, HT-29. An outline of the steps: (§1)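 Cells seeded overnight (SW480 2000/well in 10% FBS/RPMI1640; A549, HT-29 1000/well in 10% FBS DMEM or DMEM F12 HAM), then compound-treated at 37 °C, 5% CO2 for 48 h (SW480) or 96 h (A549, HT-29). Viable cells counted by TetraColor ONE; IC50 for 50% proliferation inhibition.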

The test system of another data set is SV40 promoter. The data set is described as follows: SV40 promoter activity, luciferase assay in SW480/SV40-Luc cells. Type of data set: cell-based, human. As to conditions: for IC50: Homo sapiens, SW480, read-out: SV40 promoter inhibitory activity IC50; for SV40 promoter inhibitory activity IC50: SW480/SV40-Luc cells, luciferase. In outline:
(§2)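 Stable SW480 colon cancer lines carried luciferase driven by a 5× NFκB response element or by the SV40 promoter. Compound was added 1 h before 50 ng/mL TNFα, followed by 4 h culture at 37 °C; luminescence was read and IC50 taken as 50% inhibition of induced luciferase expression.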

Data set [2] concerns human colon cancer SW480 cells. The data set is described as follows: Inhibitory action on the proliferation of SW480 cells. It is filed as cell-based. As to conditions: 48 hours, TetraColor ONE; for IC50: Homo sapiens, SW480. An outline of the steps:
as §1

The nature of another data set: Solubility of the salts. The text has this:
In in vivo studies, each compound was used in the form of a salt.

Data set [3] concerns human non-small cell lung cancer A549 cells. The data set can be described thus: Inhibitory action on the proliferation of A549 cells. To be noted: 96 hours, TetraColor ONE; for IC50: Homo sapiens, A549. Type of data set: cell-based. An outline of the steps:
as §1

Another data set relates to NFκB. The data set is described as follows: Inhibitory action on the NFκB activity, luciferase assay in SW480/NRE-Luc cells. It is filed as cell-based, human. As to conditions: for IC50: Homo sapiens, SW480, read-out: NFκB inhibitory activity IC50; for NFκB inhibitory activity IC50: SW480/NRE-Luc cells, compound 1 h then 50 ng/mL TNFα 4 h, luciferase. An outline of the steps:
as §2

The test system of data set [4] is human colon cancer HCT116 cells. The data set is described as follows: Antitumor effect in mice transplanted with human colon cancer HCT116 cells. It is filed as in vivo, mouse. As to conditions: intraperitoneal days 1-5 and 8-12, tumor weight day 21, BALB/c nude mice. The text has this:
The antitumor effect of the phenanthroindolizidine alkaloid compound of the present invention in vivo was studied using mice transplanted with human colon cancer HCT116 cells. HCT116 cells were transplanted subcutaneously in the inguinal region of male 6-week-old BALB/c nude mice (2×10^6 cells/mouse). On days 1 to 5 and on days 8 to 12 after the time at which the estimated tumor volume obtained by ½ab^2 (a and b indicate the major axis and the minor axis of tumor, respectively) reached approximately 100 mm^3 (day 0), the compound of the present invention was administered (intraperitoneal administration). To a control group, a 5% glucose solution, a solvent, was administered. On day 21, tumor was excised and measured for its weight, and subsequently a tumor proliferation-inhibition rate IR (%) was calculated.

Data set [5] relates to mouse fibrosarcoma Meth A cells. The data set is described as follows: Antitumor effect in mice transplanted with mouse fibrosarcoma Meth A cells. Type of data set: in vivo. As to conditions: intravenous on days 1, 5, 9, tumor weight day 21, BALB/c mice. On the procedure: The antitumor effect of the phenanthroindolizidine alkaloid compound of the present invention in vivo was studied using mice transplanted with mouse fibrosarcoma Meth A cells. Meth A cells were transplanted subcutaneously in the inguinal region of male 7-week-old BALB/c mice (2.5×10^5 cells/mouse). Subsequently, on days 1, 5, and 9, the compound of the present invention was intravenously administered. To a control group, physiological saline, a solvent, was administered. On day 21 after the cell transplantation, tumor was excised and measured for its weight, and subsequently a tumor growth-inhibition rate IR (%) was obtained by the following formula. Tumor growth-inhibition rate IR (%)=(1−the weight of the tumor in an administration group/the weight of the tumor in a control group)×100

The subject of data set [6] is mice transplanted with mouse fibrosarcoma Meth A cells. The data set can be described thus: Animal toxicity test. It is filed as in vivo. As to conditions: intravenous days 1, 5, 9, observed three weeks. Here is the method:
Also, the toxicity of known phenanthroindolizidine alkaloid compounds, namely (12aS,13S)-6,7-dimethoxy-9,10,11,12,12a,13-hexahydro-9a-aza-cyclopenta[b]triphenylene-3,13-diol (known compound 1; refer to WO01/023384) and (12aS,13S)-3,6,7-trimethoxy-9,10,11,12,12a,13-hexahydro-9a-aza-cyclopenta[b]triphenylene-13-ol (known compound 2; refer to Planta Med., 2002, 68: 186-188), was simultaneously studied. To a control group, a physiological saline solution, a solvent, was administered. As a result, as shown in the following Tables 35 and 36, all the mice survived in a group administered with the compound of the present invention.

Where [7] appears, read: aqueous solution of 5% glucose, saline or isotonic.

Marks after values point to notes of the source that are not given here.

As usually defined, the IC50 is the midpoint of a concentration-inhibition curve. Usually solubility stands for how much of the substance goes into solution per volume. For `COc1cc2c3c(c4ccc(F)cc4c2cc1OC)C[C@@H]1CCCN1C3.CS(=O)(=O)O` [Compound 44, (S)-3-fluoro-6,7-dimethoxy-9,10,11,12,12a,13-hexahydro-9a-aza-cyclopenta[b]triphenylene methanesulfonate], the half-maximal inhibitory concentration (IC50) in data set [1] was 0.0128 µg/mL; with SV40 promoter it was over 1 µg/mL; in data set [2], 64.9 ng/mL; in data set [3], 6 ng/mL; in the data set with NFκB it was 36.8 ng/mL. Also, the solubility in the data set “Solubility of the salts” (setting [7]) came out at 10.3 mg/mL. The “Tumor growth inhibition rate IR” value in data set [4] (total dose 100 mg/kg) was 30.7** %.

As to `COC(=O)CCC(=O)Oc1ccc2c3c(c4cc(OC)c(OC)cc4c2c1)CN1CCC[C@H]1[C@H]3O.Cl` [Compound 16, succinic acid(12aS,13S)-13-hydroxy-6,7-dimethoxy-9,10,11,12,12a,13-hexahydro-9a-aza-cyclopenta[b]triphenylene-3-yl ester methyl ester hydrochloride], in data set [1], the “HT-29 proliferation inhibitory action IC50” value worked out at 0.17 ng/mL. Besides, the “SV40 promoter inhibitory activity IC50” value with SV40 promoter is listed as over 100 ng/mL. The “SW480 proliferation inhibitory action IC50” value in [2] was 0.76 ng/mL. In addition, the figures for the “Tumor growth inhibition rate IR” value in [5] (total dose 25 mg/kg) and in data set [5] (total dose 50 mg/kg) were 48.8* % and 39.1%, respectively. In addition, the “A549 proliferation inhibitory action IC50” value in data set [3] amounted to 0.59 ng/mL. Also, the “NFκB inhibitory activity IC50” value in the data set on NFκB was 0.37 ng/mL.

As for `COc1cc2c3c(c4cccc(O)c4c2cc1OC)[C@H](O)[C@@H]1CCCN1C3.CS(=O)(=O)O` [Compound 43, (12aS,13S)-6,7-dimethoxy-9,10,11,12,12a,13-hexahydro-9a-aza-cyclopenta[b]triphenylene-4,13-diol methanesulfonate], the concentration for half-maximal inhibition (IC50) in [1] was 0.1 µg/mL; in the data set with SV40 promoter it was over 1 µg/mL; in data set [2], 6.2 ng/mL; in data set [3] it was 4.4 ng/mL; with NFκB, 2.7 ng/mL. Moreover, the solubility in “Solubility of the salts” (setting [7]) was found to be 11.2 mg/mL.

For the compound `COc1cc2c3c(c4cccc(O)c4c2cc1OC)C[C@@H]1CCCN1C3.Cl` [Compound 40, (S)-6,7-dimethoxy-9,10,11,12,12a,13-hexahydro-9a-aza-cyclopenta[b]triphenylene-4-ol hydrochloride], the concentration for half-maximal inhibition (IC50) in [1] was 0.0679 µg/mL; with SV40 promoter it was over 1 µg/mL; in data set [2], 4 ng/mL; in data set [3], 3.3 ng/mL; with NFκB it was 2.4 ng/mL. The “Tumor growth inhibition rate IR” value in data set [5] (total dose 25 mg/kg) is reported as 25.8%; in [5] (total dose 50 mg/kg) it was 45.1* %. Further, the Mortality rate in data set [6] (total dose 25 mg/kg) and in [6] (total dose 50 mg/kg) was 0/5 each time.

`COC(=O)Oc1ccc2c3c(c4cc(OC)c(OC)cc4c2c1)CN1CCC[C@H]1[C@H]3O.Cl` [Compound 17, carbonic acid(12aS,13S)-13-hydroxy-6,7-dimethoxy-9,10,11,12,12a,13-hexahydro-9a-aza-cyclopenta[b]triphenylene-3-yl ester methyl ester hydrochloride]: in data set [1], the “HT-29 proliferation inhibitory action IC50” value was 0.067 ng/mL. For the same compound, the “SV40 promoter inhibitory activity IC50” value in the data set with SV40 promoter is reported as over 100 ng/mL. In data set [2], the “SW480 proliferation inhibitory action IC50” value was found to be 0.63 ng/mL. For the same compound, the “Tumor growth inhibition rate IR” value was 54.2* % in [5] (total dose 25 mg/kg) and 50.0% in data set [5] (total dose 50 mg/kg). Further, the “A549 proliferation inhibitory action IC50” value in [3] worked out at 0.53 ng/mL. In the data set on NFκB, the “NFκB inhibitory activity IC50” value is 0.83 ng/mL.

Take `COc1cc2c3c(c4ccc(NC(C)=O)cc4c2cc1OC)C[C@@H]1CCCN1C3.CS(=O)(=O)O` [Compound 56, N-((S)-6,7-dimethoxy-9,10,11,12,12a,13-hexahydro-9a-aza-cyclopenta[b]triphenylene-3-yl)-acetamide methanesulfonate]: the IC50 in data set [1] is 0.0024 µg/mL; in the data set on SV40 promoter, over 0.01 µg/mL; in data set [2], 4.8 ng/mL; in [3], 2.2 ng/mL; with NFκB, 2.9 ng/mL. Also, the “Tumor growth inhibition rate IR” value in data set [4] (total dose 50 mg/kg) is on record as 39.1** %; in data set [4] (total dose 100 mg/kg), 68.9** %.

As for `COc1cc2c3c(c4ccc(OC(C)=O)cc4c2cc1OC)C[C@@H]1CCCN1C3.CS(=O)(=O)O` [Compound 45, acetic acid(S)-6,7-dimethoxy-9,10,11,12,12a,13-hexahydro-9a-aza-cyclopenta[b]triphenylene-3-yl ester methanesulfonate], the “HT-29 proliferation inhibitory action IC50” value in data set [1] is listed as 1.5 ng/mL. Moreover, the “SV40 promoter inhibitory activity IC50” value with SV40 promoter is over 100 ng/mL. Moreover, the “SW480 proliferation inhibitory action IC50” value in data set [2] came to 0.76 ng/mL. In “Solubility of the salts” (in an aqueous solution of 5% glucose, salt form), the solubility stood at 9.7 mg/mL. In addition, the “A549 proliferation inhibitory action IC50” value in data set [3] worked out at 0.64 ng/mL. Also, the “NFκB inhibitory activity IC50” value in the data set with NFκB is listed as 0.41 ng/mL. Moreover, the “Tumor growth inhibition rate IR” value in [4] (total dose 200 mg/kg) is reported as 34.7** %.

Consider `COc1cc2c3c(c4ccc(OC(=O)c5ccco5)cc4c2cc1OC)[C@H](O)[C@@H]1CCCN1C3.Cl` [Compound 20, furan-2-carboxylic acid(12aS,13S)-13-hydroxy-6,7-dimethoxy-9,10,11,12,12a,13-hexahydro-9a-aza-cyclopenta[b]triphenylene-3-yl ester hydrochloride], for which the “HT-29 proliferation inhibitory action IC50” value in data set [1] is given as 0.76 ng/mL. Besides, the “SV40 promoter inhibitory activity IC50” value in the data set on SV40 promoter is over 100 ng/mL. Besides, in [2], the “SW480 proliferation inhibitory action IC50” value amounted to 0.67 ng/mL. Also, the “Tumor growth inhibition rate IR” value is listed as 36.7% in data set [5] (total dose 25 mg/kg) and 53.0* % in data set [5] (total dose 50 mg/kg). The “A549 proliferation inhibitory action IC50” value in data set [3] is recorded as 0.42 ng/mL. Besides, in the data set with NFκB, the “NFκB inhibitory activity IC50” value stood at 0.46 ng/mL. The Mortality rate in data set [6] (total dose 25 mg/kg) and in data set [6] (total dose 50 mg/kg) was 0/5 each time.

On to `COC(=O)CCC(=O)Oc1ccc2c3c(c4cc(OC)c(OC)cc4c2c1)CN1CCC[C@H]1C3.Cl` [Compound 36, succinic acid(S)-6,7-dimethoxy-9,10,11,12,12a,13-hexahydro-9a-aza-cyclopenta[b]triphenylene-3-yl ester methyl ester hydrochloride], for which, in [1], the “HT-29 proliferation inhibitory action IC50” value turned out to be 2.3 ng/mL. Further, the “SV40 promoter inhibitory activity IC50” value in the data set with SV40 promoter is over 100 ng/mL. Also, the “SW480 proliferation inhibitory action IC50” value in data set [2] was 0.96 ng/mL. The “A549 proliferation inhibitory action IC50” value in [3] was determined as 0.82 ng/mL. Also, the “NFκB inhibitory activity IC50” value in the data set with NFκB was 0.64 ng/mL. The Mortality rate in data set [6] (total dose 25 mg/kg) and in [6] (total dose 50 mg/kg) was 0/5 in each case.

Turning to `COC(=O)CCC(=O)Oc1ccc2c3c(c4cc(OC)c(OC)cc4c2c1)CN1CCC[C@H]1C3.CS(=O)(=O)O` [Compound 46, succinic acid(S)-6,7-dimethoxy-9,10,11,12,12a,13-hexahydro-9a-aza-cyclopenta[b]triphenylene-3-yl ester methyl ester methanesulfonate], the “HT-29 proliferation inhibitory action IC50” value in data set [1] worked out at 2.1 ng/mL. For the same compound, the “SV40 promoter inhibitory activity IC50” value in the data set on SV40 promoter is recorded as over 1000 ng/mL. Also, in [2], the “SW480 proliferation inhibitory action IC50” value was 0.36 ng/mL. The “A549 proliferation inhibitory action IC50” value in [3] was determined as 1.2 ng/mL. Also, the “NFκB inhibitory activity IC50” value in the data set with NFκB was 0.13 ng/mL. Besides, the “Tumor growth inhibition rate IR” value in data set [4] (total dose 200 mg/kg) was 34.6** %.
